Molecules are shown by their SMILES.

These results are taken from patent US7445892B2, “Method of testing anticancer agent-sensitivity of tumor cells” (Eisai Co., Ltd., priority 2000, dated 2008).

Holding throughout (assay type): cell-based, human
The test system of test [1] is HCT116-C9. The test is described as follows: Gene expression analysis using DNA microarray (GeneChip Hu6800). The procedure: All cells were cultured in RPMI-1640 medium supplemented with 10% of fetal bovine serum, 100 units/ml of penicillin and 100 μg/ml of streptomycin at 37° C. under 5% CO2.
E7070, or ER-35748 or ER-68487 represented by the structural formula shown below was added to the media of an E7070-susceptible strain HCT116-C9 and an E7070-resistant strain HCT116-C9-C1 at a concentration of 8 μM and the cells were cultured. Then, cells were recovered after 0, 3, 6 and 12 hours. Further, the cells were also cultured for 12 hours without adding the drug and recovered.
Total RNA was extracted from these cells and subjected to the subsequent analyses. The RNA extracted from the cells cultured for 12 hours with the drug and the RNA from extracted the cells cultured for 12 hours without the drug were used for the gene expression analysis using a DNA microarray described in Example 2. HCT116-C9 was a substrain isolated from HCT116 derived from human colon cancer (American Type Culture Collection, Manassas, Va., U.S.A.), and HCT116-C9-C1 was an E7070-resistant substrain obtained by culturing this HCT116-C9 in the presence of E7070 with gradually increasing the E7070 concentration.
Total RNA was extracted from the recovered cells by using TRIZOL Reagent (Life Technologies Oriental) according to the attached operation manual.
Each RNA obtained in Example 1 was dissolved in 100 μl of sterilized water treated with diethyl pyrocarbonate (DEPC) and further purified by using RNeasy Column (QIAGEN), and double-stranded cDNA was synthesized by using SuperScript Choice System (Life Technologies Oriental) and a T7-d(T)24 primer.
First, to 10 μg of RNA, 5 μM T7-d(T)24 primer, 1×First strand buffer, 10 mM DTT, 500 μM dNTP mix and 20 units/μl of SuperScript II Reverse Transcriptase were added and the mixture was allowed to react at 42° C. for 1 hour to synthesize single-stranded DNA. Subsequently, to the DNA, 1×Second strand buffer, 200 μM dNTP mix, 67 U/ml of DNA ligase, 270 U/ml of DNA polymerase I and 13 U/ml of RNase H were added and the mixture was allowed to react at 16° C. for 2 hours to synthesize double-stranded cDNA. Further, to the cDNA, 67 U/ml of T4 DNA polymerase I was added and the mixture was allowed to react at 16° C. for 5 minutes and then 10 μl of 0.5 M EDTA was added to terminate the reaction.
The obtained cDNA was purified with phenol/chloroform, and a labeling reaction with biotinylated UTP and CTP was carried out by using RNA Transcript Labeling Kit (Enzo Diagnostics) according to the attached operation manual. The reaction product was purified with Rneasy Column and heated in 200 mM Tris/acetate buffer (pH 8.1), 150 mM magnesium acetate, 50 mM potassium acetate at 94° C. for 35 minutes to obtain fragment cRNA.
The fragmented cRNA was hybridized with GeneChip Hu6800 (Affymetrix) in 100 mM MES, 1 M sodium salt, 20 mM EDTA and 0.01% Tween 20 at 45° C. for 16 hours. After the hybridization, the GeneChip was washed and stained according to the protocol EukGE-WS2 attached to Affymetrix Fluidics Station. For the staining, streptavidin-phycoerythrin and biotinylated goat anti-streptavidin antibody were used. The stained GeneChip was scanned by using HP Argon Ion Laser Confocal Scanner (Hewlett Packard) to measure its fluorescence intensity. The fluorescence was measured at 570 nm by using an excitation light at 488 nm.
The quantitative data analyses were all conducted by using GeneChip Software (Affymetrix). To quantify RNA, an average of “differences [(Perfect match hybridization signal)−(Mismatch signal)]” was obtained for each probe family.
E7070, or ER-35748 or ER-68487 was added to a medium for HCT116-C9 at a concentration of 8 μM and culture was performed. The results of analysis of RNA extracted from the cells at 12 hours by using GeneChip were compared with the results of RNA analysis for HCT116-C9 cells obtained in the same manner except for not adding the drug. […]

Test [2] concerns HCT116-C9. Kind of test: Cell growth inhibition by the MTT method. Particulars: HCT116-C9, 72 hours culture, FIG. 1. The procedure:
(§1) The used cell strains HCT116-C9, HCT116-C9-C1, LX-1 and LX-1-E2 were cultured for 72 hours with addition of E7070. The actual operation was performed by using CellTiter 96 Non-Radioactive Cell Proliferation Assay (Promega, Madison, Wis.) according to the attached operation manual.
On the technique in general: Tetrazolium dyes change colour on reduction, which living cells bring about.

The subject of another test is LX-1-E2. Kind of test: Cell growth inhibition by the MTT method. The settings on record: resistant strain LX-1-E2, drug concentration 8 μM, 72 hours culture. Here is the method: as §1
The subject of another test is MDA-MB-435. Kind of test: Gene expression analysis using GeneChip in three kinds of cancers. Particulars: MDA-MB-435, 8 μM for 12 hours. The procedure:
(§2) Gene expression changes in three kinds of cancers of HCT116-C9 (human colon cancer cell strain), MDA-MB-435 (human breast cancer cell strain) and MOLT-4 (human T lymphoblastic leukemia cell strain) caused by E7070 (treated with 8 μM for 12 hours) were examined by using GeneChip in the same manner as in Example 2. A list of the genes of which expression was enhanced 1.8 times or more in common in the three kinds of cancers is shown in Table 3. Further, a list of the genes of which expression was inhibited 1.8 times or more in common in the three kinds of cancers is shown in Table 4. Since the genes of which expression varies (enhanced or reduced) in common in these strains of the three kinds of cancers established from cancer patients with totally different genetic backgrounds are very likely to be more closely associated with the E7070 antitumor action mechanism common to the tumor cells, it is considered that they can be used as valid markers when susceptibility of a tumor cell to E7070 and its related compounds is tested.

The next test concerns MOLT-4. Described as above. The settings on record: MOLT-4, 8 μM for 12 hours. The procedure:
as §2

Setting [3] is: HCT116-C9, 8 μM, 12 hours, compared with cells without drug, change of 1.8 times or more counted.

Consider `NS(=O)(=O)c1ccc(S(=O)(=O)Nc2cccc3c(Cl)c[nH]c23)cc1` [E7070, N-(3-chloro-7-indolyl)-1,4-benzenedisulfonamide], for which the “enhancement of expression of the genes listed in Table 3” value in the test with HCT116-C9 [1] (HCT116-C9, 8 μM for 12 hours) is no less than 1.8 times; in the test on MDA-MB-435 it was no less than 1.8 times; with MOLT-4, no less than 1.8 times. Further, the “inhibition of expression of the genes listed in Table 4” value with HCT116-C9 [1] (HCT116-C9, 8 μM for 12 hours) is on record as no less than 1.8 times; in the test with MDA-MB-435, no less than 1.8 times; in the test with MOLT-4, no less than 1.8 times. Further, the “expression levels of the genes listed in Table 1” value with HCT116-C9 [1] (setting [3]) is given as “increased”. In the test on HCT116-C9 [1] (setting [3]), the “expression levels of the genes listed in Table 2” value is “decreased”. Moreover, the “susceptibility (cell growth inhibition)” value in the test on HCT116-C9 [2] is recorded as “highest susceptibility”. For the same compound, the growth inhibitory effect entry in the test with LX-1-E2 was “some growth inhibitory effect”.
